Columns and labels:
Experiment in all cases: relative viability (nuclei count vs DMSO), 5 days (fraction); higher = more cells survive
Linifanib + Trametinib = compound: Cc1ccc(F)c(NC(=O)Nc2ccc(-c3cccc4[nH]nc(N)c34)cc2)c1 [Linifanib] + CC(=O)Nc1cccc(-n2c(=O)n(C3CC3)c(=O)c3c(Nc4ccc(I)cc4F)n(C)c(=O)c(C)c32)c1 [Trametinib] (partner 0.02 µM)
Method in brief: (§1)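 After 5 days of treatment, lung cancer cells in 1536-well plates were fixed and stained in a single step (final 0.05% Triton X-100, 1% formaldehyde, 1 ug/ml Hoechst) and their nuclei counted on 4× images. Treatment had been applied by pin tool the day after seeding as one drug alone or as a fixed anchor-drug dose with five library-drug doses (not always all listed) in √10 steps. Relative viability is the nuclei count of treated wells divided by that of vehicle wells, and values are medians of duplicate plates.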

Linifanib + Linsitinib = compound: Cc1ccc(F)c(NC(=O)Nc2ccc(-c3cccc4[nH]nc(N)c34)cc2)c1 [Linifanib] + C[C@]1(O)C[C@@H](c2nc(-c3ccc4ccc(-c5ccccc5)nc4c3)c3c(N)nccn32)C1 [Linsitinib] (partner 1 µM)
Method in brief: as §1

Linifanib + Tozasertib = compound: Cc1ccc(F)c(NC(=O)Nc2ccc(-c3cccc4[nH]nc(N)c34)cc2)c1 [Linifanib] + Cc1cc(Nc2cc(N3CCN(C)CC3)nc(Sc3ccc(NC(=O)C4CC4)cc3)n2)n[nH]1 [Tozasertib] (partner 0.1 µM)
Method in brief: as §1

Linifanib + Alpelisib = compound: Cc1ccc(F)c(NC(=O)Nc2ccc(-c3cccc4[nH]nc(N)c34)cc2)c1 [Linifanib] + Cc1nc(NC(=O)N2CCC[C@H]2C(N)=O)sc1-c1ccnc(C(C)(C)C(F)(F)F)c1 [Alpelisib] (partner 2 µM)
Method in brief: as §1

Linifanib + Phenformin = compound: Cc1ccc(F)c(NC(=O)Nc2ccc(-c3cccc4[nH]nc(N)c34)cc2)c1 [Linifanib] + N=C(N)NC(=N)NCCc1ccccc1 [Phenformin] (partner 250 µM)
Method in brief: as §1

Linifanib + Olaparib = compound: Cc1ccc(F)c(NC(=O)Nc2ccc(-c3cccc4[nH]nc(N)c34)cc2)c1 [Linifanib] + O=C(c1cc(Cc2n[nH]c(=O)c3ccccc23)ccc1F)N1CCN(C(=O)C2CC2)CC1 [Olaparib] (partner 8 µM)
Method in brief: as §1

Cell Line | relative viability (Linifanib + Trametinib; first compound 0.03162 µM) | relative viability (Linifanib + Trametinib; first compound 0.1 µM) | relative viability (Linifanib + Trametinib; first compound 0.3162 µM) | relative viability (Linifanib + Linsitinib; first compound 0.03162 µM) | relative viability (Linifanib + Linsitinib; first compound 0.1 µM) | relative viability (Linifanib + Linsitinib; first compound 0.3162 µM) | relative viability (Linifanib + Tozasertib; first compound 0.03162 µM) | relative viability (Linifanib + Tozasertib; first compound 0.1 µM) | relative viability (Linifanib + Tozasertib; first compound 0.3162 µM) | relative viability (Linifanib + Alpelisib; first compound 0.03162 µM) | relative viability (Linifanib + Alpelisib; first compound 0.1 µM) | relative viability (Linifanib + Alpelisib; first compound 0.3162 µM) | relative viability (Linifanib + Phenformin; first compound 0.03162 µM) | relative viability (Linifanib + Phenformin; first compound 0.1 µM) | relative viability (Linifanib + Phenformin; first compound 0.3162 µM) | relative viability (Linifanib + Olaparib; first compound 0.03162 µM) | relative viability (Linifanib + Olaparib; first compound 0.1 µM) | relative viability (Linifanib + Olaparib; first compound 0.3162 µM)
NCI-H1734 | 0.618 | 0.693 | 0.648 | 0.869 | 0.925 | 0.849 | 0.289 | 0.288 | 0.238 | 0.748 | 0.773 | 0.679 | 0.384 | 0.454 | 0.366 | 0.591 | 0.68 | 0.597
NCI-H2009 | 0.266 | 0.343 | 0.274 | 1.15 | 1.19 | 1.13 | 0.718 | 0.834 | 0.71 | 1.16 | 1.19 | 1.08 | 0.483 | 0.493 | 0.459 | 0.675 | 0.705 | 0.671
NCI-H1395 | 0.943 | 0.882 | 0.933 | 1.06 | 1.08 | 1.09 | 0.691 | 0.725 | 0.729 | 1.2 | 1.02 | 1.08 | 0.444 | 0.454 | 0.414 | 0.462 | 0.463 | 0.461
NCI-H838 | 0.528 | 0.554 | 0.521 | 0.973 | 1.14 | 0.901 | 0.248 | 0.301 | 0.229 | 0.903 | 1.07 | 0.932 | 0.79 | 0.642 | 0.542 | 0.753 | 0.783 | 0.71
NCI-H2405 | 0.599 | 0.675 | 0.596 | 0.886 | 0.98 | 0.852 | 0.785 | 0.809 | 0.778 | 0.801 | 0.847 | 0.701 | 0.396 | 0.4 | 0.382 | 0.94 | 0.835 | 0.828
NCI-H1355 | 0.407 | 0.497 | 0.404 | 0.843 | 0.876 | 0.852 | 0.504 | 0.547 | 0.551 | 0.81 | 0.823 | 0.794 | 0.449 | 0.496 | 0.425 | 0.768 | 0.832 | 0.726
NCI-H1993 | 0.623 | 0.593 | 0.61 | 0.749 | 0.691 | 0.788 | 0.62 | 0.638 | 0.57 | 0.628 | 0.711 | 0.646 | 0.44 | 0.514 | 0.504 | 1.03 | 1.13 | 0.963
NCI-H1755 | 0.781 | 0.801 | 0.831 | 0.953 | 1.01 | 0.999 | 0.585 | 0.625 | 0.553 | 0.966 | 0.963 | 0.833 | 0.666 | 0.621 | 0.571 | 0.875 | 0.903 | 0.835
NCI-H650 | 0.935 | 0.967 | 0.952 | 1 | 1.07 | 0.851 | 0.704 | 0.733 | 0.73 | 1.09 | 1.04 | 1.14 | 0.45 | 0.449 | 0.439 | 0.348 | 0.397 | 0.361
NCI-H2347 | 0.283 | 0.292 | 0.264 | 0.994 | 0.96 | 0.954 | 0.615 | 0.523 | 0.591 | 1.07 | 1.05 | 1.08 | 0.517 | 0.864 | 0.298 | 0.629 | 0.646 | 0.565
SK-LU-1 | 0.457 | 0.745 | 0.48 | 0.932 | 1.02 | 0.981 | 0.317 | 0.331 | 0.323 | 0.926 | 0.918 | 1.05 | 0.528 | 0.622 | 0.58 | 0.467 | 0.558 | 0.456
NCI-H322M | 0.549 | 0.345 | 0.506 | 1 | 0.865 | 0.838 | 0.5 | 0.515 | 0.407 | 0.81 | 0.823 | 0.754 | 0.756 | 0.819 | 0.737 | 0.832 | 0.809 | 0.796
NCI-H2023 | 0.538 | 0.675 | 0.554 | 0.681 | 0.676 | 0.652 | 0.322 | 0.398 | 0.293 | 0.585 | 0.598 | 0.564 | 0.398 | 0.479 | 0.392 | 0.518 | 0.615 | 0.46
LCLC-97TM1 | 0.2 | 0.179 | 0.16 | 0.17 | 0.214 | 0.171 | 0.205 | 0.231 | 0.189 | 0.284 | 0.292 | 0.246 | 0.423 | 0.437 | 0.341 | 0.453 | 0.402 | 0.502
SW 1573 | 0.505 | 0.674 | 0.563 | 0.853 | 0.845 | 0.743 | 0.195 | 0.193 | 0.189 | 0.609 | 0.914 | 0.657 | 0.411 | 0.363 | 0.438 | 0.463 | 0.498 | 0.505
HCC-15 | 0.346 | 0.409 | 0.365 | 0.881 | 0.89 | 0.817 | 0.39 | 0.406 | 0.436 | 0.881 | 0.941 | 0.887 | 0.501 | 0.567 | 0.479 | 0.827 | 0.772 | 0.706
NCI-H727 | 0.396 | 0.418 | 0.388 | 0.224 | 0.291 | 0.222 | 0.535 | 0.659 | 0.529 | 0.613 | 0.6 | 0.483 | 0.609 | 0.574 | 0.609 | 0.938 | 0.744 | 0.784
